Values joined by “and” are separate entries in the source; they are usually repeats but may differ in a detail not shown here. Equal values may be shown once. Peptide text beside a SMILES is read from it. * marks the point of attachment. pNA = O=[N+]([O-])c1ccc(N*)cc1; Boc = CC(C)(C)OC(=O)*

This test concerns the target Genome polyprotein (dengue virus type 2, UniProt P29990). It is filed as functional, Thailand/16681/1984.

Genome polyprotein, sequence (P29990 1346-1475 limits assumed): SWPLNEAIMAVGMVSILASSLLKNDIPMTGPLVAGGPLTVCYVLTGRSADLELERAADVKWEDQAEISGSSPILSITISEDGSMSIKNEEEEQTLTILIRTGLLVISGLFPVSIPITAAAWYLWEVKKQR
Genome polyprotein, sequence (P29990 1476-2093 limits assumed): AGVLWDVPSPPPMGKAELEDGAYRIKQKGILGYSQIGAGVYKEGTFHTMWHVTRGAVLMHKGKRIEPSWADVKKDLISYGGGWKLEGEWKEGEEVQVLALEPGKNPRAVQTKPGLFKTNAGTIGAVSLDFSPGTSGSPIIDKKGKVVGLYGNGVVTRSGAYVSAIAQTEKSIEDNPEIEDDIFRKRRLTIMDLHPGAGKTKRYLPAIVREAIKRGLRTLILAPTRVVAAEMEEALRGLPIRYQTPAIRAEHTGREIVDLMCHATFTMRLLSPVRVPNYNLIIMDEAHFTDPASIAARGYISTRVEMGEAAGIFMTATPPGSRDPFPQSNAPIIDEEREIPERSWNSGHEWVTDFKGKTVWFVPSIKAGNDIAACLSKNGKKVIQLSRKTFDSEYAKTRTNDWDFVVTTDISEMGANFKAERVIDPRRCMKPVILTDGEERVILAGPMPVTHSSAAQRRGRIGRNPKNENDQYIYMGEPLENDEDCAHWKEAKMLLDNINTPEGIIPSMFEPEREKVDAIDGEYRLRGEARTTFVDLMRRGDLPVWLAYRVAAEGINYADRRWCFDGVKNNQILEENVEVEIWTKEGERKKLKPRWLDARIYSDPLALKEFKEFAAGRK

As a reminder, the IC50 is the concentration needed to halve the response being measured. A high value points to weaker potency. On to `NCc1cccc(NC(=O)c2cc(N)cc(NC(=O)OCc3ccccc3)c2)c1`, for which the IC50 was > 99.5 µM.

`COCc1cc(Cl)ccc1NS(=O)(=O)c1ccc(Oc2ccccc2Cl)cc1`: the IC50 was > 99.5 µM. The figure for `O=C(O)c1cc(F)c(F)c(F)c1NS(=O)(=O)c1ccc(Oc2ccccc2Cl)cc1` is 24.5 µM; for `CC(C)(C)OC(=O)NCc1cccc(NC(=O)[C@H](NC(=O)OCc2ccccc2)C2CCNCC2)c1` it is > 99.5 µM. Take `O=S(=O)(Nc1ccc(Cl)cc1)c1ccc(Oc2ccccc2Cl)cc1`: the IC50 is > 99.5 µM. As for `O=C(NCC(F)F)[C@H](Nc1ccc2c(n1)CNC2)c1cc(Cl)cc(C2CC2)c1`, the figure is > 296 µM; as for `CSc1ccc([C@H](CC(=O)Nc2cccc(CN)c2)NC(=O)OCc2ccccc2)cc1`, 44.2 µM.

Consider `N[C@H]1CCc2cc(-c3ccn(-c4ccccc4)n3)ccc2C1`, for which the IC50 is > 99.5 µM.

For the compound `c1ccc([C@H](NCc2c[nH]c3ccccc23)c2cccnc2)cc1`, the IC50 was > 99.5 µM. The figure for `CCn1c(=O)c(N2CC[C@@]3(COC(=O)N3)C2)nc2ccccc21` is > 99.5 µM; for `NCc1ccc(/C=C/C(=O)C(=O)N2CCOCC2)cc1` it is > 99.5 µM.

Take `CN(C)Cc1cncc(NC(=O)[C@@H](NC(=O)OCc2ccccc2)c2ccc(OCc3ccccc3)cc2)c1`: the IC50 was > 99.5 µM. The figure for `NCc1ccc(-c2ccc(OCC3CCNCC3)nc2-c2ccc(-c3ccoc3)cc2)cc1` is 67.1 µM; for `O=C(Cc1cccc2[nH]ncc12)Nc1ccc2c(c1)CNC2` it is > 99.5 µM. As for `N=C(N)NCCc1ccc(NC(=O)Oc2ccccc2)cc1`, the figure is > 99.5 µM; as for `c1ccc(-c2ncc(CN3CCC(c4nc5ccccc5s4)CC3)[nH]2)cc1`, > 99.5 µM; as for `CC1(C)CNC[C@H](C(=O)Nc2cccc(CN)c2)C1`, > 99.5 µM. As to `c1ccc2c(CN[C@H]3CCc4ncsc4C3)n[nH]c2c1`, the IC50 was > 99.5 µM. Take `NCCNC(=O)c1cc(Cl)cc(NC(=O)OCc2ccccc2)c1`: the half-inhibitory concentration (IC50) is > 99.5 µM. Take `CCCCN1Cc2ccc(NS(=O)(=O)c3ccc(Cl)cc3C(=O)O)cc2C1`: the IC50 is > 99.5 µM. As for `NCc1cccc(NC(=O)[C@@H](NC(=O)OCc2ccccc2)c2ccc(OC[C@H]3CCCCO3)cc2)c1`, the figure is > 99.5 µM; as for `NS(=O)(=O)c1cccc(-c2ccc(S(=O)(=O)Nc3ccc(Cl)cc3C(=O)O)cc2)c1`, 30.6 µM. As for `O=C(N[C@@H](C(=O)Nc1ccc2c(n1)CNC2)c1ccc(OCc2ccccc2)cc1)OCc1ccccc1`, the figure is > 99.5 µM; as for `Cn1nc2c(c1NC(=O)c1cc(Cl)cc(NC(=O)OCc3ccccc3)c1)CNC2`, > 99.5 µM. As for `CCc1n[nH]cc1-c1cccc([C@H](NC(=O)OCc2ccccc2)C(=O)Nc2cccc(CN)c2)c1`, the figure is > 99.5 µM; as for `CC(C)[C@@H]1C(=O)O[C@H]1C(=O)O`, > 99.5 µM; as for `Cc1n[nH]c2cc(C(=O)N3CCC(C)(NC(=O)[C@H]4C[C@H](N(C)C)C4)CC3)ccc12`, > 99.5 µM. On to `CCn1cc(-c2cncc(OC)c2)nc(N2CC[C@@H](CO)C2)c1=O`, for which the IC50 was > 99.5 µM. As for `O=C(Nc1ccc2c(c1)CNC2)c1cc(Cl)cc2c1cnn2C[C@H]1CCCO1`, the figure is > 99.5 µM; as for `CN(C)c1ccc(/C=C/C(=O)C(=O)N2CCOCC2)cc1`, 88.8 µM; as for `O=C(O)c1cc(Cl)ccc1NS(=O)(=O)c1ccc(Oc2ccccc2)cc1`, 21.7 µM. The figure for `CCCN(C)C(=O)c1cc(Cl)ccc1NS(=O)(=O)c1ccc(Oc2ccccc2Cl)cc1` is 27.9 µM; for `C[C@@H](NC(=O)C1CCN(c2cccc(C(N)=O)n2)CC1)[C@H]1CCCNC1` it is > 99.5 µM.

With `CCn1ccnc(N2C[C@@H](OC(=O)OC)[C@H](c3c[nH]c4ccccc34)C2)c1=O`, the IC50 was > 99.5 µM. Turning to `CN(C)Cc1cc(CNC(=O)[C@@H](NC(=O)OCc2ccccc2)c2ccc(OCc3ccccc3)cc2)ccc1F`, the IC50 is > 99.5 µM. As for `CC(C)(C)c1cc(CN2CCC(c3cscn3)CC2)n[nH]1`, the figure is > 99.5 µM; as for `CCn1c(=O)c(N2CCC[C@H]2C(=O)NC2CC2)nc2ccccc21`, > 99.5 µM. Regarding `CCn1cc(-c2ccc3c(c2)CCNC3)nc(N2CC[C@@H](CO)C2)c1=O`, the IC50 is > 99.5 µM.

On to `O=C(N[C@H](C(=O)NCc1ccc(F)cc1)c1ccc(OCc2ccccc2)cc1)OCc1ccccc1`, for which the IC50 is > 99.5 µM. As for `N#Cc1ccccc1-c1ccc([C@H](NC(=O)OCc2ccccc2)C(=O)Nc2cccc(CN)c2)cc1`, the figure is 18.6 µM; as for `O=C(O)c1cc(Cl)ccc1S(=O)(=O)NC1CCN(c2ncnc3c2CCC3)CC1`, > 99.5 µM.

`Cc1n[nH]cc1CC(=O)N1CCCC12CCN(C(=O)c1ccnc(CO)c1)CC2`: the IC50 was > 99.5 µM. For `NCc1cccc(NC(=O)[C@H](NS(=O)(=O)c2cccnc2)c2ccc(OCc3ccccc3)cc2)c1`, the IC50 is > 99.5 µM. As for `Cn1ncnc1Sc1nc(C2CCCC2)ns1`, the figure is > 99.5 µM. On to `CNC(=O)c1cccc(CNc2cc(Cl)cc(C(=O)NC(C)(C)CO)c2)c1`, for which the IC50 was > 99.5 µM. The figure for `O=Cc1ccc(CC(=O)N2C[C@@H](O)[C@H](N3CCOCC3)C2)cc1` is > 99.5 µM.

For the compound `c1cncc([C@@H]2CN(Cc3c[nH]c4ccccc34)CCO2)c1`, the IC50 is > 99.5 µM.

With `NCc1cccc(NC(=O)[C@@H]2C[C@H](NC(=O)OCc3ccccc3)[C@H]3C[C@H]32)c1`, the IC50 was > 99.5 µM.

For the compound `CCn1c(=O)c(N2C[C@@H]3CS(=O)(=O)C[C@@H]3C2)nc2ccccc21`, the 50% inhibitory concentration (IC50) was > 99.5 µM.

For the compound `O=C(O)c1cc(Cl)ccc1S(=O)(=O)Nc1ccc(N2CCCCC2)c(F)c1`, the IC50 was > 99.5 µM. For `O=C(Cn1ccnc(N2CC[C@H](CO)C2)c1=O)Nc1ccccc1`, the IC50 is > 99.5 µM.

For `NC(=O)c1cccc(NC(=O)[C@@H](NC(=O)c2ccc(Oc3ccc(C(F)(F)F)cc3)cc2)c2ccc(OCc3ccccc3)cc2)c1`, the IC50 is > 99.5 µM.

The compound `O=C(O)c1nscc1NS(=O)(=O)c1ccc(Oc2ccccc2Cl)cc1` registered an IC50 of 63.2 µM. Consider `N=C(N)Nc1ccc(OC(=O)Nc2ccccc2)cc1`, for which the IC50 is > 99.5 µM. `COc1ccccc1-c1ccc([C@@H](NC(=O)OCc2ccccc2)C(=O)Nc2cccc(CN)c2)cc1`: the IC50 was > 99.5 µM. The compound `NCc1cccc(NC(=O)[C@@H](NC(=O)OCc2ccccc2)c2ccc(-c3cccnc3F)cc2)c1` showed an IC50 of 71.4 µM. As for `CCn1cc(C2=CCCNC2)nc(N2CC[C@@H](CO)C2)c1=O`, the figure is > 99.5 µM. Compound `NCc1cccc(NC(=O)C[C@@H](NC(=O)OCc2ccccc2)c2ccc(OCc3ccccc3)cc2)c1` had an IC50 of 10.4 µM.

Consider `NCc1cccc(NC(=O)C[C@H](NC(=O)OCc2ccccc2)c2ccc(Br)cc2)c1`, for which the IC50 amounted to 51.8 µM. As for `O=C(Nc1ccc2c(c1)CNC2)c1cc(Cl)cc(C(F)(F)F)n1`, the figure is 22.5 µM. As for `O=Cc1ccc(N2CCC(C(=O)Nc3cccc(Br)n3)CC2)cc1`, the figure is 14.4 µM. As for `O=C(Nc1cc(Cl)cc(C(=O)Nc2cccc(C3CCNCC3)c2)c1)OCc1ccccc1`, the figure is 20.5 µM and 20.3 µM; as for `COc1cc(Cc2c(-c3ccc(F)cc3)noc2C)nc(N2CCNCC2)n1`, > 99.5 µM. As to `c1ccc(C2CCN(Cc3ccc4nccnc4c3)CC2)nc1`, the IC50 is > 99.5 µM. As for `O=C(O)c1cc(Cl)c(F)cc1NS(=O)(=O)c1ccc(Oc2ccccc2)cc1`, the figure is 13.1 µM; as for `O=C(O)c1cc(Cl)ccc1S(=O)(=O)Nc1ccc(-c2n[nH]c3c2CCCC3)cc1`, 73.2 µM. The figure for `CSCC[C@H](NC(=O)OC(C)(C)C)C(=O)N1CCC[C@H]1C(=O)Nc1ccc([N+](=O)[O-])cc1` (Boc-Met-Pro-pNA) is > 99.5 µM; for `CCn1cc(-c2cn(C)nc2C)nc(N2CC[C@@H](CO)C2)c1=O` it is > 99.5 µM.

For the compound `O=C(N[C@@H](C(=O)Nc1n[nH]c2c1CNC21CC1)c1ccc(OCc2ccccc2)cc1)OCc1ccccc1`, the half-maximal inhibitory concentration (IC50) was > 99.5 µM. Take `CCc1ccccc1COc1ccc(S(=O)(=O)Nc2ccc(Cl)cc2C(=O)O)cc1`: it took 6.5 µM to reach half-maximal inhibition (IC50). As for `OC[C@H]1CCN(c2cncc(N3CCOCC3)n2)C1`, the figure is > 99.5 µM; as for `CCn1c(=O)c(N2CC3(COC3)[C@](F)(CO)C2)nc2ccccc21`, > 99.5 µM. As for `O=C(Nc1cc(Cl)cc(C(=O)Nc2nc3c(s2)CCNC3)c1)OCc1ccccc1`, the figure is > 99.5 µM. The figure for `Cc1ccc(S(=O)(=O)N2CCC(NS(=O)(=O)c3ccc(Cl)cc3C(=O)O)CC2)cc1` is > 99.5 µM. As to `CCn1c(=O)c(N2C[C@H]3C[C@@]3(C(F)F)C2)nc2ccccc21`, the IC50 is > 99.5 µM. As for `CCOc1cc(N2CCN(C)CC2)ccc1NS(=O)(=O)c1ccc(Cl)cc1C(=O)O`, the figure is > 99.5 µM; as for `NCc1cccc(NC(=O)[C@H]2c3ccccc3CCN2C(=O)OCc2ccccc2)c1`, > 99.5 µM. As for `CCn1cc(Cl)nc(N2CC[C@@H](CO)C2)c1=O`, the IC50 is > 99.5 µM. The figure for `O=S(=O)(Nc1ccc(Cl)cc1CO)c1ccc(Oc2ccccc2Cl)cc1` is 78.8 µM; for `CN1CC=C(c2ccc(S(=O)(=O)Nc3ccc(Cl)cc3C(=O)O)cc2)CC1` it is > 99.5 µM; for `NCc1cccc(NC(=O)c2cc(OCc3ccccc3)ccc2CNC(=O)OCc2ccccc2)c1` it is 24.8 µM. As for `COC(=O)[C@@H]1CC2(CC[C@@H]1NS(=O)(=O)c1ccc(Oc3ccccc3Cl)cc1)CC2`, the figure is > 99.5 µM; as for `O=C(O)c1cc(Cl)ccc1NS(=O)(=O)c1ccc(OCc2ccccn2)cc1`, > 99.5 µM.

As to `O=c1ccn(Cc2cc(=O)n3ccccc3n2)c2ccsc12`, the IC50 is > 99.5 µM.

As to `NC1(c2cccc(NC(=O)c3cc(Cl)cc(NC(=O)OCc4ccccc4)c3)c2)CCC1`, the IC50 is > 99.5 µM.

With `CCn1c(=O)c(N2CCC[C@H]2c2ncccn2)nc2ccccc21`, the IC50 is > 99.5 µM. Take `CCn1cc(-c2ccc(OC)c(C)c2)nc(N2CC[C@@H](CO)C2)c1=O`: the half-inhibitory concentration (IC50) is > 99.5 µM. The figure for `NCC1CCN(C(=O)c2cc(Cl)cc(NC(=O)OCc3ccccc3)c2)CC1` is > 99.5 µM; for `COc1ccc(S(=O)(=O)Nc2ccc(Cl)cc2C(=O)O)cc1` it is > 99.5 µM; for `CCCOc1ccc([C@@H](CC(=O)Nc2cccc(CN)c2)NC(=O)OCc2ccccc2)cc1` it is 24.7 µM and 59.4 µM. The figure for `c1nnc(SCCCSc2nncs2)s1` is > 99.5 µM.

The values are drawn from ChEMBL document CHEMBL5604063, “ASAP - DENV-2 NS2B-NS3 protease fluorescence dose response” (2024).
